In US10047105B2, “Gyrase inhibitors” (Merck Sharp & Dohme Corp., priority 2009, dated 2018):
≈ marks a conversion by molar mass, not a printed value.

Assays:
Assay type in all cases: cell-based
[1] = test system: S. aureus ATCC 13709; assay: MIC, antibacterial potency, S. aureus; settings: S. aureus (SA); in µg/mL
[2] = test system: S. pneumoniae ATCC 51916; assay: MIC, S. pneumoniae; settings: S. pneumoniae (Spn52); in µg/mL
[3] = test system: E. coli 8 ATCC 25922; assay: MIC, E. coli 8 (wt); settings: E. coli 8 (EC8)

CCc1[nH]c2nc(Sc3cnc4cccnc4c3)nc(N3CC[C@@H](N)C3)c2c1Cl.O=C(O)C(F)(F)F.O=C(O)C(F)(F)F [700,795]
MIC, SA [1]: <=0.5
MIC Spn52 [2]: <=0.5
MIC EC8 [3]: 8 µg/mL

CCc1[nH]c2nc(Sc3cnc4nccnc4c3)nc(N3CCC4(CCNCC4)C3)c2c1Cl [700,900]
MIC, SA [1]: 8
MIC Spn52 [2]: 8

CCc1[nH]c2nc(Sc3ccc4nccnc4c3)nc(N3CCC4(CCNCC4)C3)c2c1Cl [700,901]
MIC, SA [1]: 8
MIC Spn52 [2]: 4

CCc1[nH]c2nc(Sc3ccc4c(N5CC[C@@H](N)C5)ncnc4c3)nc(N3CC[C@@H](N)C3)c2c1Cl [700,903]
MIC, SA [1]: 32
MIC Spn52 [2]: 64

CCc1[nH]c2nc(Sc3ccc4c(N5CC(CN)C5)ncnc4c3)nc(N3CC[C@@H](N)C3)c2c1Cl [700,904]
MIC, SA [1]: 32
MIC Spn52 [2]: >64

CCc1[nH]c2nc(Sc3cnc4c(=N)n(CC5OCCO5)c(C)nc4c3)nc(N3CC[C@@H](N)C3)c2c1Cl [700,906]
MIC, SA [1]: 2
MIC Spn52 [2]: 4
MIC EC8 [3]: > 64 µg/mL

CCc1[nH]c2nc(Oc3cncnc3)nc(N3CC(N)C3)c2c1Cl [700,907]
MIC, SA [1]: 8
MIC Spn52 [2]: 16
MIC EC8 [3]: 64 µg/mL (≈ 185 µM)

CCc1[nH]c2nc(Oc3cncnc3)nc(N3CCCC3CO)c2c1Cl (centres unmarked) [700,908]
MIC, SA [1]: 8
MIC Spn52 [2]: 16
MIC EC8 [3]: > 64 µg/mL

CCc1[nH]c2nc(Oc3cncnc3)nc(N3CC(Cc4cncnc4)C3)c2c1Cl [700,909]
MIC, SA [1]: 1
MIC Spn52 [2]: 4
MIC EC8 [3]: > 64 µg/mL

CCc1[nH]c2nc(Oc3cncnc3)nc(N3CCC(N)C3)c2c1Cl (centres unmarked) [700,910]
MIC, SA [1]: >64
MIC Spn52 [2]: >64
MIC EC8 [3]: > 64 µg/mL

CCc1[nH]c2nc(Oc3cncnc3)nc(N3CC4C(N)C4C3)c2c1Cl (centres unmarked) [700,911]
MIC, SA [1]: 1
MIC Spn52 [2]: 2
MIC EC8 [3]: > 32 µg/mL

CCc1[nH]c2nc(Sc3ccc4c(Oc5cccc(CNC)c5)cc(C)nc4c3)nc(N3CC[C@@H](N)C3)c2c1Cl [700,912]
MIC, SA [1]: 8
MIC Spn52 [2]: >64
MIC EC8 [3]: 32 µg/mL (≈ 55.7 µM)

CCc1[nH]c2nc(Sc3ccc4c(-n5ccnc5)cc(C)nc4c3)nc(N3CC[C@@H](N)C3)c2c1Cl [700,913]
MIC, SA [1]: 2
MIC Spn52 [2]: 2
MIC EC8 [3]: > 64 µg/mL

CCc1[nH]c2nc(Sc3ccc4nc(C)nc(N5CC(CN)C5)c4c3)nc(N3CC[C@@H](N)C3)c2c1Cl [700,914]
MIC, SA [1]: 64
MIC Spn52 [2]: >64
MIC EC8 [3]: 32 µg/mL (≈ 61.1 µM)

CCc1[nH]c2nc(Sc3ccc4nc(C)nc(N5CC6CNC6C5)c4c3)nc(N3CC[C@@H](N)C3)c2c1Cl (some centres unmarked) [700,916]
MIC, SA [1]: 64
MIC Spn52 [2]: >64
MIC EC8 [3]: > 64 µg/mL

CCc1[nH]c2nc(Sc3ccc4c(N5CC(CN)C5)cc(C(F)(F)F)nc4c3)nc(N3CC[C@@H](N)C3)c2c1Cl [700,917]
MIC, SA [1]: 4
MIC Spn52 [2]: 4
MIC EC8 [3]: 8 µg/mL (≈ 13.9 µM)

CCc1[nH]c2nc(Sc3ccc4[nH]c(C(F)(F)F)cc(=O)c4c3)nc(N3CC[C@@H](N)C3)c2c1Cl [700,918]
MIC, SA [1]: 2
MIC Spn52 [2]: 8
MIC EC8 [3]: > 64 µg/mL

CCc1[nH]c2nc(Sc3ccc4[nH]cc(C#N)c(=O)c4c3)nc(N3CC[C@@H](N)C3)c2c1Cl [700,919]
MIC, SA [1]: >64
MIC Spn52 [2]: >64
MIC EC8 [3]: > 64 µg/mL

CCc1[nH]c2nc(Sc3ccc4[nH]cc(C(=O)O)c(=O)c4c3)nc(N3CC[C@@H](N)C3)c2c1Cl [700,920]
MIC, SA [1]: >64
MIC Spn52 [2]: >64
MIC EC8 [3]: > 64 µg/mL

CCc1[nH]c2nc(Sc3cnc4cccnc4c3)nc(N3CCC(NCCN)C3)c2c1Cl (centres unmarked) [700,921]
MIC, SA [1]: 2
MIC Spn52 [2]: 4
MIC EC8 [3]: > 64 µg/mL

CCc1[nH]c2nc(Sc3ccc4c(N5CC(CN)C5)nc(C)nc4c3)nc(N3CC[C@@H](N)C3)c2c1Cl [700,922]
MIC, SA [1]: 32
MIC Spn52 [2]: 64
MIC EC8 [3]: 4 µg/mL (≈ 7.63 µM)

CCc1[nH]c2nc(Sc3cnc4c(=N)n(CCCN(C)C)c(C)nc4c3)nc(N3CC[C@@H](N)C3)c2c1Cl [700,923]
MIC, SA [1]: 16
MIC Spn52 [2]: 8
MIC EC8 [3]: 64 µg/mL (≈ 118 µM)

CCc1[nH]c2nc(Sc3cnc4c(=N)n(CCN(C)C)c(C)nc4c3)nc(N3CC[C@@H](N)C3)c2c1Cl [700,924]
MIC, SA [1]: 16
MIC Spn52 [2]: 4
MIC EC8 [3]: 64 µg/mL (≈ 121 µM)

CCOC(=O)/C=C/c1ccc(Sc2nc(N3CC[C@@H](N)C3)c3c(Cl)c(CC)[nH]c3n2)cc1F [700,925]
MIC, SA [1]: 4
MIC Spn52 [2]: 32
MIC EC8 [3]: > 64 µg/mL

CCc1[nH]c2nc(Oc3cncc(C#N)c3)nc(Cc3cccc(C#N)c3)c2c1Cl [700,927]
MIC, SA [1]: <=0.5
MIC Spn52 [2]: 1
MIC EC8 [3]: > 64 µg/mL

CCc1[nH]c2nc(Sc3ccc4c(c3)c(=O)c(C#N)cn4CCN(C)C)nc(N3CC[C@@H](N)C3)c2c1Cl [700,928]
MIC, SA [1]: 2
MIC Spn52 [2]: 8
MIC EC8 [3]: 16 µg/mL (≈ 29.8 µM)

CCc1[nH]c2nc(Sc3ccc4c(c3)c(=O)c(C#N)cn4CCCN(C)C)nc(N3CC[C@@H](N)C3)c2c1Cl [700,929]
MIC, SA [1]: 16
MIC Spn52 [2]: 64
MIC EC8 [3]: 32 µg/mL (≈ 58.1 µM)

CCc1[nH]c2nc(Oc3cccc(C#N)c3)nc(C(C)O)c2c1Cl (centres unmarked) [700,930]
MIC, SA [1]: 8
MIC Spn52 [2]: 16
MIC EC8 [3]: > 64 µg/mL

CCc1[nH]c2nc(Oc3cncc(C(=O)O)c3)nc(Oc3cncnc3)c2c1Cl [700,932]
MIC, SA [1]: >64
MIC Spn52 [2]: >64
MIC EC8 [3]: > 64 µg/mL

CCc1[nH]c2nc(Oc3cncc(C#N)c3)nc(Oc3cc(C#N)cc(OC)c3)c2c1Br [700,933]
MIC, SA [1]: 2
MIC Spn52 [2]: 4
MIC EC8 [3]: > 64 µg/mL

CCc1[nH]c2nc(Oc3cncc(OC)c3)nc(N3CC(O)C3)c2c1Cl [700,934]
MIC, SA [1]: 4
MIC Spn52 [2]: 16
MIC EC8 [3]: > 64 µg/mL

CCc1[nH]c2nc(Oc3cnc4ccoc4c3)nc(N3CC(N)C3)c2c1Br [700,935]
MIC, SA [1]: 2
MIC Spn52 [2]: 32
MIC EC8 [3]: > 64 µg/mL

CCc1[nH]c2nc(Oc3cnc4ccoc4c3)nc(N3CC4CNC4C3)c2c1Cl (centres unmarked) [700,936]
MIC, SA [1]: 64
MIC Spn52 [2]: 32
MIC EC8 [3]: > 64 µg/mL

CCc1[nH]c2nc(Oc3cncc(OC)c3)nc(Oc3cncc(OC)c3)c2c1Br [700,937]
MIC, SA [1]: <=0.5
MIC Spn52 [2]: 1
MIC EC8 [3]: > 64 µg/mL

CCc1[nH]c2nc(Oc3ccc4nccnc4c3)nc(Oc3ccc4nccnc4c3)c2c1Br [700,938]
MIC, SA [1]: <=0.5
MIC Spn52 [2]: <=0.5
MIC EC8 [3]: > 64 µg/mL

CCc1[nH]c2nc(Oc3cnc4c(c3)ncn4C)nc(Oc3cnc4c(c3)ncn4C)c2c1Br [700,939]
MIC, SA [1]: <=0.5
MIC Spn52 [2]: 1
MIC EC8 [3]: > 64 µg/mL

CCc1[nH]c2nc(Sc3ccc4cc5c([n+]([O-])c4c3)CCNC5)nc(N3CC[C@@H](N)C3)c2c1Cl [700,940]
MIC, SA [1]: 2
MIC Spn52 [2]: 8
MIC EC8 [3]: 8 µg/mL (≈ 16.1 µM)

CCc1[nH]c2nc(Oc3cncnc3)nc(N3CC4CNC4C3)c2c1Cl (centres unmarked) [700,941]
MIC, SA [1]: 4
MIC Spn52 [2]: 8
MIC EC8 [3]: > 64 µg/mL

CCc1[nH]c2nc(Sc3ccc4c(N5CC(N)C5)ncnc4c3)nc(N3CC[C@@H](N)C3)c2c1Cl [700,942]
MIC, SA [1]: 16
MIC Spn52 [2]: 16
MIC EC8 [3]: 8 µg/mL (≈ 16.1 µM)

CCc1[nH]c2nc(Sc3cnc4c(=N)n(CCCN5CCC(N)C5)c(C)nc4c3)nc(N3CC[C@@H](N)C3)c2c1Cl (some centres unmarked) [700,943]
MIC, SA [1]: 32
MIC Spn52 [2]: 32
MIC EC8 [3]: 64 µg/mL (≈ 110 µM)
